From PMC8972196, “A Set of Experimentally Validated Decoys for the Human CC Chemokine Receptor 7 (CCR7) Obtained by Virtual Screening” (Frontiers in Pharmacology, 2022)

What was measured:
[1] = system: ATP-induced Ca2+ release in CHO-K1 cells; test: ATP-induced calcium response in CHO-K1 cells; settings: ATP 10 µM final concentration, Fluo-2
From the text: Using CHO-K1 cells, exactly the same experimental set-up as for the chemokine receptor expressing U87 cells was applied, essentially including the same fluorescent calcium dye (Fluo-2) for cell loading.

human CCR7 [2] = target: T1, human CCR7 (Homo sapiens, UniProt P32248); test: CCR7 competition binding assay with CCL19^AF647 (flow cytometry, whole cells)
T1 construct: expressed in transfected cells
T1 sequence (P32248 25-378): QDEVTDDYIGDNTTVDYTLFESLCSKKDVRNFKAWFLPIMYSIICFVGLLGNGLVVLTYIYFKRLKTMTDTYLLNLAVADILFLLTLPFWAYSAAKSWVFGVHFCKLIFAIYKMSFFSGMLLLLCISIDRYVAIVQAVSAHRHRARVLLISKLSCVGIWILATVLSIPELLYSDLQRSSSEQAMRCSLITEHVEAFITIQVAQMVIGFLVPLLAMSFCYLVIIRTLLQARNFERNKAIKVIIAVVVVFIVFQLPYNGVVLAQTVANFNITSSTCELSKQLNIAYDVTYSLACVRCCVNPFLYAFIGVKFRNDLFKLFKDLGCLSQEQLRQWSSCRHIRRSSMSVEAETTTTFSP
Experimental: In brief, U87.CD4.CCR7 cells were pre-incubated with compound (at different concentrations) in 150 μL assay buffer [Hank’s balanced salt solution (HBSS), 20 mM HEPES and 0.5% Fetal Calf Serum] for 15 min at room temperature (RT) in the dark. Afterwards, 50 μL of CCL19^AF647 was added (25 ng/mL final concentration) and samples were incubated for another 30 min at RT, protected from light. Then, cells were washed twice with assay buffer and fixed in 1% paraformaldehyde in Dulbecco’s phosphate-buffered saline (DPBS).
Samples were immediately analyzed by flow cytometry (FACS Canto II, BD). Data were analysed using Flowjo. The percentage inhibition of CCL19^AF647 binding was calculated according to formula {1—[(MFIX–MFINC)/(MFIPC–MFINC)]} x 100, where MFIX is the mean fluorescence intensity (MFI) of the compound-treated sample, MFINC the MFI of the negative control (i.e., autofluorescence of untreated and unlabeled cells) and MFIPC the MFI of the positive control (i.e., cells exposed to CCL19^AF647 only). […] For each experiment the stain index (SI) was calculated as the ratio of the separation between MFIPC and MFINC, divided by two times the standard deviation of MFINC.

human CXCR2 = target: T2, human CXCR2 (Homo sapiens, UniProt P25025); test: CXCL8-induced calcium mobilization assay, U87.CD4 cells expressing CXCR2; format: cell-based; settings: Mean ± SD of at least three independent experiments; read-out: IC50, CXCL8-CXCR2 Ca2+ response
T2 construct: expressed in transfected cells
T2 sequence (P25025 1-360): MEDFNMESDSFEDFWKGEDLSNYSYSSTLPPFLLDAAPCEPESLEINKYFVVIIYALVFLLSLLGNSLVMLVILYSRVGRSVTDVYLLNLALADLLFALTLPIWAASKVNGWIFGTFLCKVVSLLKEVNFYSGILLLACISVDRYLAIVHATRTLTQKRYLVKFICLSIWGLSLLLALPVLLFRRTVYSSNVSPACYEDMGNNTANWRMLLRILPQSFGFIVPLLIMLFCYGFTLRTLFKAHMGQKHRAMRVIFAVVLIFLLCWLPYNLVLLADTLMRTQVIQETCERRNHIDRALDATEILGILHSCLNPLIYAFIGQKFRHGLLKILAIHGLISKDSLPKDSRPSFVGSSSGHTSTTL
Experimental: (§1) U87.CD4 cells that stably express either human CCR7, CXCR2, CCR5 or CXCR4 were seeded (20,000 cells/well) in gelatin-coated black-walled polystyrene 96-well plates with clear bottom and incubated overnight at 37°C and 5% CO2. […] Culture medium was removed, and cells were incubated for 45 min at room temperature in the dark. […] Exactly the same protocol was used to record calcium responses in Chinese hamster ovary (CHO)-K1 cells, upon stimulation with adenosine triphosphate (ATP, purchased from Sigma).

human CCR7 [3] = target: T1, human CCR7; test: CCL19-induced calcium mobilization assay, U87.CD4 cells expressing CCR7; format: cell-based
Procedure, shortened: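 U87.CD4 cells stably expressing human CCR7, CXCR2 or CCR5 were seeded at 20,000 cells/well and incubated overnight at 37°C and 5% CO2. Cells were then incubated for 45 min at room temperature in the dark before calcium responses were recorded. CCR7 responses were induced with CCL19 and CXCR2 responses with CXCL8.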

human CXCR4 = target: T3, human CXCR4 (Homo sapiens, UniProt P61073); test: CXCL12-induced calcium mobilization assay, U87.CD4 cells expressing CXCR4; format: cell-based; settings: Mean ± SD of at least three independent experiments; read-out: IC50, CXCL12-CXCR4 Ca2+ response
T3 construct: expressed in transfected cells
T3 sequence (P61073 whole entry): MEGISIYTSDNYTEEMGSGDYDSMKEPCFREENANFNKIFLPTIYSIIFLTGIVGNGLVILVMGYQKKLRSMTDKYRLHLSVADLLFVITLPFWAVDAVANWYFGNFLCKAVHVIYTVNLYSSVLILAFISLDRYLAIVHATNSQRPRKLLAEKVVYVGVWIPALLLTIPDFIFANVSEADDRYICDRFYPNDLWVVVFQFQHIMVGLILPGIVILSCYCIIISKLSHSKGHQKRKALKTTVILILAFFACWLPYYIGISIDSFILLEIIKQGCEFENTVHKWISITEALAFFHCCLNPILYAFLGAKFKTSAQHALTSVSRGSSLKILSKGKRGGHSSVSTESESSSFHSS
Experimental: U87.CD4 cells that stably express either human CCR7, CXCR2, CCR5 or CXCR4 were seeded (20,000 cells/well) in gelatin-coated black-walled polystyrene 96-well plates with clear bottom and incubated overnight at 37°C and 5% CO2. The next day, a fluorescent Ca^2+-sensitive dye solution (Fluo-2 AM) was prepared as described before ([Claes et al., 2018]). Culture medium was removed, and cells were incubated for 45 min at room temperature in the dark. Meanwhile, 96-well polypropylene plates containing 5-fold concentrated compound dilutions and 5-fold concentrated solution of chemokine ligands (CCL19, CXCL8, LD78-β, CXCL12, respectively; all purchased from PeproTech) were prepared for use with the FLIPR Tetra device (Molecular Devices) as described before ([Claes et al., 2018]). The antagonistic properties of the compounds were calculated based on their capacity to inhibit the Ca^2+ release induced by a fixed concentration of chemokine (i.e. 50 ng/mL final concentration for CCL19, CXCL8 and CXCL12 and 100 ng/ml for LD78-β), as described ([Claes et al., 2018]). Exactly the same protocol was used to record calcium responses in Chinese hamster ovary (CHO)-K1 cells, upon stimulation with adenosine triphosphate (ATP, purchased from Sigma).

human CCR5 = target: T4, human CCR5 (Homo sapiens, UniProt P51681); test: cell-based; settings: Mean ± SD of at least three independent experiments; read-out: IC50, LD78-β-CCR5 Ca2+ response
T4 construct: expressed in transfected cells
T4 sequence (P51681 whole entry): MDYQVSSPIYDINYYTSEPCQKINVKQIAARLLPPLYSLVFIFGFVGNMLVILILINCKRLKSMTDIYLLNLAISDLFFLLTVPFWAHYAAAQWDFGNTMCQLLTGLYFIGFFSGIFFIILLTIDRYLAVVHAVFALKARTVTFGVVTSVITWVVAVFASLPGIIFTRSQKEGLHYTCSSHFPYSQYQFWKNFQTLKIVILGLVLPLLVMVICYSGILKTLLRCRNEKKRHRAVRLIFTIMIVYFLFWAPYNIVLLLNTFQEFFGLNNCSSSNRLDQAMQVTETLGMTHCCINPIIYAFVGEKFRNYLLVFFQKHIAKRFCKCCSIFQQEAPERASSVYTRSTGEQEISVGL
Experimental: as §1

In the case of FC(F)(F)c1cc(NC(=S)Nc2cc(C(F)(F)F)cc(C(F)(F)F)c2)cc(C(F)(F)F)c1 [C040, S=C(NC1=CC(C(F)(F)F)=CC(C(F)(F)F)=C1)NC2=CC(C(F)(F)F)=CC(C(F)(F)F)=C2], the “inhibition of calcium response induced by ATP” value [1] is reported as “dose-dependently inhibit”, the “activity in CCR7 competition binding assay” value (human CCR7 [2]; highest concentration tested (25 µM)) is reported as “inactive” and the “inhibition of CCL19^AF647 binding / CCR7 affinity” value (human CCR7 [2]; result in words) is reported as “completely devoid of activity”. For the same molecule, the IC50 (human CXCR2) was 3 to 18 µM, the “IC50 [μM] block CCL19 induced calcium signaling” value (human CCR7 [3]; CCL19-induced calcium signaling) was “assay interference” and the IC50 (human CCR7 [3]; inhibition of CCL19 induced intracellular calcium flux, Mean ± SD of at least three independent experiments, read-out: Calcium assay IC50) was 3 to 18 µM. It also gave an IC50 (human CXCR4) of 3 to 18 µM and an IC50 (human CCR5) of 3 to 18 µM.
